Patent US20220323594A1, “LIPIDATED CATIONIC PEPTIDE-PEG COMPOSITIONS FOR NUCLEIC ACID DELIVERY” (NUTCRACKER THERAPEUTICS, INC., priority 2019, published 2022)

Tests used:
[1] = MTT viability assay after treatment with Fluc mRNA/amino lipidated peptoid formulations; format: cell-based; conditions: human, HeLa cells
Method: Cellular viability was measured following treatment with Fluc mRNA/amino lipidated peptoid formulations by a traditional MTT viability assay. […] In this assay, cells were first treated with peptoid formulations at a final mRNA concentration of 100 ng/well for 8 hours. Cells were then left to grow for 48 hours, after which time they were exposed to 1.5 mg/mL 3-(4,5-dimethylthiazol-2-yl)-2,5-diphenyltetrazolium bromide (MTT) for 2 hours, then lysed using a solubilizing solution of 10% Triton-X 100 in acidic isopropanol (0.1N HCl). The signal corresponding to reduced formazan was normalized to untreated cells to provide a relative viability of each treated condition. […] In general, nearly all conditions maintained at least 80% viability with the only exceptions being formulations of compound 5, 34, and 35.

HeLa cells [2] = test: In vitro Fluc expression with variable peptoid:mRNA mass ratio, 2% DMG-PEG2000; format: cell-based; conditions: 24 h; for Observed Luciferase Expression (RLU) for Given Formulation Mass Ratio 2:1: 2% (w/w) DMG-PEG2000, peptoid:mRNA 2:1; for Observed Luciferase Expression (RLU) for Given Formulation Mass Ratio 3.5:1: 2% (w/w) DMG-PEG2000, peptoid:mRNA 3.5:1; for Observed Luciferase Expression (RLU) for Given Formulation Mass Ratio 5:1: 2% (w/w) DMG-PEG2000, peptoid:mRNA 5:1; for Observed Luciferase Expression (RLU) for Given Formulation Mass Ratio 7.5:1: 2% (w/w) DMG-PEG2000, peptoid:mRNA 7.5:1
Method: The charge ratio dependence of amino lipidated peptoid delivery vehicles was evaluated by formulating particles between Fluc mRNA and delivery vehicles at varying mass ratios. Formulations were varied between 2:1 and 7.5:1 peptoid:mRNA (w/w) ratios (2:1, 3.5:1, 5:1 and 7.5:1). In addition, the role of DMG-PEG2000 was also explored with the mass ratios, either by excluding DMG-PEG2000 or incorporating DMG-PEG2000 at 2% (w/w) relative to amino lipidated peptoid. Fluc expression from these formulations was measured in HeLa cells following treatment for 24 hours. […] FIGS. 6B and 6C show plots of the average bioluminescence (RLU) for HeLa cells treated with the formulations of exemplary amino lipidated cationic peptoid compounds 1-36, all formulated with 2% w/w DMG-PEG2000.

[3] = mRNA encapsulation by fluorescence of Qubit RNA HS dye before and after lysis with Triton X-100; format: physicochemical; conditions: percentage of mRNA encapsulation; Fluc mRNA/peptoid formulation, 5:1 mass ratio
Method: The exemplary amino lipidated cationic peptoids described in Example 2 were combined with firefly luciferase (Fluc) mRNA to form nanoparticle compositions to be evaluated for therapeutic and/or prophylactic purposes in vitro or in vivo. The formulations were prepared according to the protocol of Example 3 and mixed by simple pipetting. The mRNA/peptoid formulation at a 5:1 mass ratio of peptoid:cargo were evaluated by dynamic light scattering (DLS) in order to determine the volume average particle size/diameter (nm) of the mRNA/peptoid complex and the size polydispersity index (PDI) within the formulation. The percentage of mRNA encapsulation for each formulation of the exemplary compounds were determined by fluorescence of the Qubit RNA HS (Invitrogen) dye before and after lysis of particles by Triton X-100.

HeLa cells [4] = test: In vitro expression of firefly luciferase (Fluc) after treatment with Fluc mRNA/amino lipidated peptoid formulations, no PEG or 2% DMG-PEG2000; format: cell-based
Method: The efficacy of mRNA/amino lipidated peptoid formulations was evaluated in vitro based on their ability to deliver the firefly luciferase (Fluc) reporter gene to cultured cells. Amino lipidated peptoids were combined with Fluc mRNA at a 5:1 w/w ratio, and the resulting particles were added to cultured HeLa cells at a dose of 100 ng/well (in 100 μL total volume). The resulting luciferase expression (RLU) was measured by a luminescence plate reader after 6 hours and 24 hours of treatment. […] In addition to evaluating nanoparticle complexes formed between mRNA cargos and amino lipidated peptoids alone, multicomponent formulations containing a small amount of PEG-lipid DMG-PEG2000 were also tested for in vitro Fluc mRNA delivery. In these formulations, DMG-PEG2000 was pre-mixed with candidate peptoid at an overall 2% incorporation (w/w), while maintaining the same 5:1 mass ratio of peptoid:mRNA used previously.

[5] = no PEG, peptoid:Fluc mRNA 5:1 w/w, 100 ng/well, 6 h of treatment
[6] = no PEG, peptoid:Fluc mRNA 5:1 w/w, 100 ng/well, 24 h of treatment
[7] = with 2% (w/w) DMG-PEG2000, peptoid:mRNA 5:1, 6 h after treatment
[8] = with 2% (w/w) DMG-PEG2000, peptoid:mRNA 5:1, 24 h after treatment

Compound | viability at 8 h, 500 ng/well ([1]; Relative Viability (%) 2% PEG) [%] | viability at 8 h, 500 ng/well ([1]; Relative Viability (%) No PEG) [%] | other results
CCCCCCCCCCN(CC(N)=O)C(=O)CN(CCCCCCCCCC)C(=O)CN(CCCCCCCCCC)C(=O)CN(CCCCCCCCCC)C(=O)CN(CCc1ccccc1)C(=O)CN(CCc1ccccc1)C(=O)CN(CCN)C(=O)CN(CCc1ccccc1)C(=O)CN(CCc1ccccc1)C(=O)CN(CCN)C(=O)CN(CCc1ccccc1)C(=O)CN(CCc1ccccc1)C(=O)CNCCN [Compound 8] | 97.3 | 92 | –
CCCCCCCCCCN(CC(N)=O)C(=O)CN(CCCCCCCCCC)C(=O)CN(CCc1ccccc1)C(=O)CN(CCc1ccccc1)C(=O)CN(CCN)C(=O)CN(CCc1ccccc1)C(=O)CN(CCc1ccccc1)C(=O)CN(CCN)C(=O)CN(CCc1ccccc1)C(=O)CN(CCc1ccccc1)C(=O)CN(CCN)C(=O)CN(CCc1ccccc1)C(=O)CN(CCc1ccccc1)C(=O)CN(CCN)C(=O)CN(CCc1ccccc1)C(=O)CN(CCc1ccccc1)C(=O)CNCCN [Compound 12] | 104 | 98.5 | –
CCCCCCCCCCN(CC(N)=O)C(=O)CN(CCCCCCCCCC)C(=O)CN(CCCCCCCCCC)C(=O)CN(CCCCCCCCCC)C(=O)CN(CCCCCCCCCC)C(=O)CN(CCc1ccccc1)C(=O)CN(CCc1ccccc1)C(=O)CN(CCN)C(=O)CN(CCc1ccccc1)C(=O)CN(CCc1ccccc1)C(=O)CN(CCN)C(=O)CN(CCc1ccccc1)C(=O)CN(CCc1ccccc1)C(=O)CNCCN [Compound 19] | 94.8 | 87.1 | –
CCCCCCCCCCN(CC(N)=O)C(=O)CN(CCCCCCCCCC)C(=O)CN(CCCCCCCCCC)C(=O)CN(CCCCCCCCCC)C(=O)CN(CCCCCCCCCC)C(=O)CN(CCc1ccccc1)C(=O)CN(CCc1ccccc1)C(=O)CN(CCN)C(=O)CN(CCc1ccccc1)C(=O)CN(CCc1ccccc1)C(=O)CN(CCN)C(=O)CN(CCc1ccccc1)C(=O)CN(CCc1ccccc1)C(=O)CN(CCN)C(=O)CN(CCc1ccccc1)C(=O)CN(CCc1ccccc1)C(=O)CNCCN [Compound 21] | 109 | 91.3 | –
CCCCCCCCCCN(CC(N)=O)C(=O)CN(CCCCCCCCCC)C(=O)CN(CCCCCCCCCC)C(=O)CN(CCCCCCCCCC)C(=O)CN(CCCCCCCCCC)C(=O)CN(CCCCCCCCCC)C(=O)CN(CCCCCCCCCC)C(=O)CN(CCc1ccccc1)C(=O)CN(CCc1ccccc1)C(=O)CN(CCN)C(=O)CN(CCc1ccccc1)C(=O)CN(CCc1ccccc1)C(=O)CN(CCN)C(=O)CN(CCc1ccccc1)C(=O)CN(CCc1ccccc1)C(=O)CNCCN [Compound 23] | 118 | 108 | Observed Luciferase Expression (RLU) for Given Formulation Mass Ratio 2:1 (HeLa cells [2]): 5.47E+01 RLU; Observed Luciferase Expression (RLU) for Given Formulation Mass Ratio 3.5:1 (HeLa cells [2]): 1.42E+02 RLU; Observed Luciferase Expression (RLU) for Given Formulation Mass Ratio 5:1 (HeLa cells [2]): 2.07E+02 RLU; Observed Luciferase Expression (RLU) for Given Formulation Mass Ratio 7.5:1 (HeLa cells [2]): 1.55E+02 RLU; % Encapsulation [3]: 3.9%; Luciferase Expression (RLU) 6 h (HeLa cells [4]; [5]): 5.60E+01 RLU; Luciferase Expression (RLU) 24 h (HeLa cells [4]; [6]): 9.47E+01 RLU; Luciferase Expression (RLU) 6 h (HeLa cells [4]; [7]): 2.53E+01 RLU; Luciferase Expression (RLU) 24 h (HeLa cells [4]; [8]): 2.13E+01 RLU
CCCCCCCCCCN(CC(=O)N(CC(=O)N(CCCCCCCCCC)CC(=O)N(CC(N)=O)CC(CC)CCCC)CC(CC)CCCC)C(=O)CN(CCc1ccccc1)C(=O)CN(CCc1ccccc1)C(=O)CN(CCN)C(=O)CN(CCc1ccccc1)C(=O)CN(CCc1ccccc1)C(=O)CN(CCN)C(=O)CN(CCc1ccccc1)C(=O)CN(CCc1ccccc1)C(=O)CNCCN (stereo not shown) [Compound 24] | 112 | 92 | –
CCCCCCCCCCN(CC(N)=O)C(=O)CN(CCCCCCCCCC)C(=O)CN(CCCCCCCCCC)C(=O)CN(CCCCCCCCCC)C(=O)CN(CCc1ccccc1)C(=O)CN(CCc1ccccc1)C(=O)CN(CCNC)C(=O)CN(CCc1ccccc1)C(=O)CN(CCc1ccccc1)C(=O)CN(CCNC)C(=O)CN(CCc1ccccc1)C(=O)CN(CCc1ccccc1)C(=O)CN(CCNC)C(=O)CN(CCc1ccccc1)C(=O)CN(CCc1ccccc1)C(=O)CNCCNC [Compound 26] | 91.9 | 98.8 | Observed Luciferase Expression (RLU) for Given Formulation Mass Ratio 2:1 (HeLa cells [2]): 4.91E+02 RLU; Observed Luciferase Expression (RLU) for Given Formulation Mass Ratio 3.5:1 (HeLa cells [2]): 3.93E+03 RLU; Observed Luciferase Expression (RLU) for Given Formulation Mass Ratio 5:1 (HeLa cells [2]): 6.06E+03 RLU; Observed Luciferase Expression (RLU) for Given Formulation Mass Ratio 7.5:1 (HeLa cells [2]): 3.19E+03 RLU; % Encapsulation [3]: 35.7%; Luciferase Expression (RLU) 6 h (HeLa cells [4]; [5]): 5.00E+00 RLU; Luciferase Expression (RLU) 24 h (HeLa cells [4]; [6]): 1.07E+01 RLU; Luciferase Expression (RLU) 6 h (HeLa cells [4]; [7]): 5.85E+02 RLU; Luciferase Expression (RLU) 24 h (HeLa cells [4]; [8]): 6.45E+02 RLU
CCCCCCCCCCN(CC(N)=O)C(=O)CN(CCCCCCCCCC)C(=O)CN(CCCCCCCCCC)C(=O)CN(CCCCCCCCCC)C(=O)CN(CCc1ccccc1)C(=O)CN(CCc1ccccc1)C(=O)CN(CCCN)C(=O)CN(CCc1ccccc1)C(=O)CN(CCc1ccccc1)C(=O)CN(CCCN)C(=O)CN(CCc1ccccc1)C(=O)CN(CCc1ccccc1)C(=O)CN(CCCN)C(=O)CN(CCc1ccccc1)C(=O)CN(CCc1ccccc1)C(=O)CNCCCN [Compound 29] | 94 | 85.9 | –
CCCCCCCCCCN(CC(N)=O)C(=O)CN(CCCCCCCCCC)C(=O)CN(CCCCCCCCCC)C(=O)CN(CCCCCCCCCC)C(=O)CN(CCc1ccccc1)C(=O)CN(CCc1ccccc1)C(=O)CN(CC1CCCN1)C(=O)CN(CCc1ccccc1)C(=O)CN(CCc1ccccc1)C(=O)CN(CC1CCCN1)C(=O)CN(CCc1ccccc1)C(=O)CN(CCc1ccccc1)C(=O)CNCC1CCCN1 (stereo not shown) [Compound 34] | 106 | 67.6 | viability at 8 h, 500 ng/well ([1]; viability): < 80%
CCCCCCCCCCN(CC(N)=O)C(=O)CN(CCCCCCCCCC)C(=O)CN(CCCCCCCCCC)C(=O)CN(CCCCCCCCCC)C(=O)CN(CCc1ccccc1)C(=O)CN(CCc1ccccc1)C(=O)CN(CC1CCCN1)C(=O)CN(CCc1ccccc1)C(=O)CN(CCc1ccccc1)C(=O)CN(CC1CCCN1)C(=O)CN(CCc1ccccc1)C(=O)CN(CCc1ccccc1)C(=O)CN(CC1CCCN1)C(=O)CN(CCc1ccccc1)C(=O)CN(CCc1ccccc1)C(=O)CNCC1CCCN1 (stereo not shown) [Compound 35] | 105 | 74.8 | viability at 8 h, 500 ng/well ([1]; viability): < 80%
